Data as given in patent US20180243325A1, “METHOD FOR INHIBITING ABSORPTION OF AND/OR PROMOTING EXCRETION OF LIPIDS USING D-PSICOSE” (CJ CHEILJEDANG CORPORATION, priority 2015, published 2018).

Columns and labels:
Type in all cases: in vivo, C57BL/6J mice
[1] = test system: high-fat diet-induced obese mice; assay: Hepatic tissue morphologies (H&E); details: FIG. 4C, 200×, HFD+5% w/w in diet, 16 weeks
Experimental: (§1) First, 4-week-old male C57BL/6J mice (60 total) were purchased from Jackson Laboratory. The animals were acclimated to the vivarium in a thermo-hygrostat (20-23° C., 45-65%) under a 12 h light/dark cycle and fed a pelletized commercial non-purified diet for 1 week after arrival. The mice were then randomly divided into 6 groups (n=10) and fed the respective experimental diets for 16 weeks: normal diet group (ND, American Institute of Nutrition (AIN)-76 semi-synthetic diet), high-fat diet group (HFD, 20% fat+1% cholesterol based on AIN-76 diet), PSI group (HFD+5% D-psicose, w/w, Sigma Chemical Company), ERY group (HFD+5% erythritol, w/w, Sigma Chemical Company), GLU group (HFD+5% D-glucose, w/w, Sigma Chemical Company), and FRU group (HFD+5% D-fructose, w/w, Sigma Chemical Company). All high-fat diet-fed groups were allowed to ingest the same calories by pair feeding based on the PSI group. The mice had ad libitum access to distilled water during the experimental period. Their feed intakes and body weights were measured daily and biweekly, respectively. The organ weights and the adipose tissue weights of the mice were measured after sacrificing the animals.
Liver tissues were removed from the mice in the normal diet group (ND) and high-fat diet groups (HFD, ERY, GLU, FRU, and PSI) and fixed in a buffer solution of 10% formalin. The fixed liver tissues were embedded in paraffin. […] sections were prepared from the liver tissues and their cross-sections were dyed with hematoxylin and eosin. Stained areas were observed using an optical microscope at a magnification of 200× (Nikon, Tokyo, Japan).

[2] = test system: fatty acid synthase (FAS); assay: FAS activity in epididymal white adipose tissue; details: FIG. 5A, HFD+5% w/w in diet, 16 weeks
Experimental: as §1, with “animals. Samples were prepared and analyzed according to the method developed by Hulcher and Oleson. Specifically, the activity of fatty acid synthase (FAS) as a lipid regulating enzyme of epididymal white adipose tissue was measured by spectrophotometric assay according to the method described by Nepokroeff et al. Each sample was mixed with 100 μl of cytoplasmic fraction and the mixture was allowed to react at 30° C. for 2 min. A reduction in absorbance at 340 nm was measured. FAS activity units were expressed as nanomoles (nmol) of NADPH oxidized for 1 min per mg of cytoplasmic fraction. Fatty acid β-oxidation activity was measured by monitoring the reduction of NAD^+ to NADH in the presence of palmitoyl-CoA, as described by Lazarow. β-oxidation activity units were expressed as nanomoles (nmol) of NADH produced for 1 min per mg of mitochondrial protein.” for “animals.”

[3] = test system: high-fat diet-induced obese mice; assay: Lipid excretion in feces; details: FIG. 7, HFD+5% w/w in diet, 16 weeks
Experimental: as §1
Lipids were extracted from feces from mice in the normal diet group (ND) and the high-fat diet groups (HFD, ERY, GLU, FRU, and PSI) and dried. Then, each of the dried lipid extracts was dissolved in 1 ml of ethanol. 200 μl of the lipid solution was emulsified in a solution of Triton X-100 and sodium cholate in distilled water. Triglyceride, cholesterol, and fatty acid levels in the feces were analyzed using the same enzymatic kits as those used in Example 2.

[4] = test system: CD36 (cluster of differentiation 36, 12491); assay: Small intestine mRNA expression, real-time quantitative PCR: CD36; details: FIG. 8, HFD+5% w/w in diet, 16 weeks
Experimental: as §1
(§2) Samples were prepared and analyzed as previously described. Specifically, total RNA was synthesized into cDNA using a QuantiTect Reverse Transcription kit (QIAGEN Gmb1h, Hilden, Germany). RNA expression was quantified with real-time quantitative PCR using a QuantiTect SYBR Green PCR kit (QIAGEN Gmb1h, Hilden, Germany). Primers were designed to detect CD36 (cluster of differentiation 36, 12491), ApoB48 (apolipoprotein B 48, 238055), FATP4 (fatty acid transporter 4, 26569), ABCG5 (ATP-binding cassette sub-family G member5, 27409), and ABCG8 (ATP-binding cassette sub-family G member8, 67470). GAPDH was used as an internal transcription marker. The reaction was performed a total of 40 cycles (each consisting of 15 sec at 94° C., 30 sec at 58° C., 30 sec at 72° C., and 15 sec at 65° C.). Fluorescence signals were monitored every cycle and the resulting threshold cycles (Ct) were analyzed. mRNA expression in each experimental group was quantified using a CFX96 Real time system (Bio-rad, USA).

[5] = test system: FATP4 (fatty acid transporter 4, 26569); assay: Small intestine mRNA expression, real-time quantitative PCR: FATP4; details: FIG. 8, HFD+5% w/w in diet, 16 weeks
Experimental: as §1, §2

[6] = test system: ApoB48 (apolipoprotein B 48, 238055); assay: Small intestine mRNA expression, real-time quantitative PCR: ApoB48; details: FIG. 8, HFD+5% w/w in diet, 16 weeks
Experimental: as §1, §2

Row | SMILES | accumulation / size of adipocytes in the liver tissues [1] | FAS activity in adipose tissue [2] | cholesterol level in the feces [3] | fatty acid level in the feces [3] | triglyceride level in the feces [3] | mRNA expression level of CD36 in the small intestine [4] | mRNA expression level of FATP4 in the small intestine [5] | mRNA expression level of ApoB48 in the small intestine [6] | mRNA expression level of CD36 in the small intestine ([4]; listed as D-psicose) | mRNA expression level of FATP4 in the small intestine ([5]; listed as D-psicose) | mRNA expression level of ApoB48 in the small intestine ([6]; listed as D-psicose)
1 | O=C[C@H](O)[C@@H](O)[C@H](O)[C@H](O)CO [GLU, D-glucose] | more distinctly observed than in the liver tissues of the ND group | increased significantly compared to those in the ND group | significantly higher than those from the normal diet group | significantly higher than those from the normal diet group | significantly higher than those from the normal diet group | significantly higher | significantly higher | significantly higher | – | – | –
2 | O=C(CO)[C@@H](O)[C@H](O)[C@H](O)CO [FRU, D-fructose] | more distinctly observed than in the liver tissues of the ND group | increased significantly compared to those in the ND group | significantly higher than those from the normal diet group | significantly higher than those from the normal diet group | significantly higher than those from the normal diet group | significantly higher | significantly higher | significantly higher | – | – | –
3 | OC[C@@H](O)[C@@H](O)CO [ERY, erythritol] | more distinctly observed than in the liver tissues of the ND group | increased significantly compared to those in the ND group | significantly higher than those from the normal diet group | significantly higher than those from the normal diet group | significantly higher than those from the normal diet group | significantly higher | significantly higher | significantly higher | – | – | –
4 | O=C(CO)[C@H](O)[C@H](O)[C@H](O)CO [PSI, D-psicose] | smaller than that in the liver tissues of other high-fat diet groups | decreased significantly compared to those in other high-fat diet groups | significantly higher than those from other high-fat diet groups | significantly higher than those from other high-fat diet groups | significantly higher than those from other high-fat diet groups | significantly lower in the PSI group than those in other high-fat diet groups | significantly lower in the PSI group than those in other high-fat diet groups | significantly lower in the PSI group than those in other high-fat diet groups | reduces mRNA expression | reduces mRNA expression | reduces mRNA expression
